The target of this assay is Tissue alpha-L-fucosidase (Bos taurus). As to the kind of experiment: Compound was tested for the inhibitory activity against alpha-L-fucosidase from bovine epididymis.

These results are taken from BindingDB's records for doi:10.1016/0960-894X(96)00356-3 (1996).

In general, Ki refers to the equilibrium dissociation constant of an inhibitor or competing ligand from its target. Lower therefore signals tighter binding.

`CC1SC(OP(=O)(O)OCc2ccccc2)C(O)C(O)C1O` (stereo unspecified) [Sodium; benzyl 3,4,5-trihydroxy-6-methyltetrahydro-2H-thiopyran-2-yl hydrogen phosphate] registered a Ki of 33 µM. On to `CC1SC(Oc2ccc([N+](=O)[O-])cc2)C(O)C(O)C1O` [(3R,4S,5S)-2-Methyl-6-(4-nitro-phenoxy)-tetrahydro-thiopyran-3,4,5-triol], for which the Ki was 118 µM. For `CSC1SC(C)C(O)C(O)C1O` [(3R,4S,5S)-2-Methyl-6-methylsulfanyl-tetrahydro-thiopyran-3,4,5-triol] the value was 2300 µM; for `CC1SC(OP(=O)(O)O)C(O)C(O)C1O` [Sodium; Phosphoric acid mono-((3S,4S,5R)-3,4,5-trihydroxy-6-methyl-tetrahydro-thiopyran-2-yl) ester], 406 µM; for `CC1SC(Sc2ccc([N+](=O)[O-])cc2)C(O)[C@H](O)C1O` (stereo partly drawn) [(R)-2-Methyl-6-(4-nitro-phenylsulfanyl)-tetrahydro-thiopyran-3,4,5-triol], 3.3 µM.

The compound `COC1SC(C)C(O)C(O)C1O` [(3S,4S,5R)-2-Methoxy-6-methyl-tetrahydro-thiopyran-3,4,5-triol] returned a Ki of 690 µM.
